This passage reports IC50 and inhibition results from ChEMBL document CHEMBL1157501, “Novel fluorinated acridone derivatives. Part 1: synthesis and evaluation as potential anticancer agents” (Bioorg Med Chem Lett, 2008).

For one assay, the system named is BT-549. The assay is described as follows: Antiproliferative activity against human BT549 cells after 72 hrs by alamar blue assay. It counts as functional, cell-based. The note with it: BT-549, 72 h. (In general: The colour change of resazurin is a common sign of viable cells or microbes.)
In the next assay the test system is BT-20. The assay is described as follows: Antiproliferative activity against human BT20 cells after 72 hrs by Alamar Blue assay. It counts as functional, cell-based. The note with it: BT-20, 72 h.
In another assay the test system is SW480. The assay is described as follows: Antiproliferative activity against human SW480 cells after 72 hrs by Alamar Blue assay. Format: functional, cell-based. The note with it: SW480, 72 h.
The subject of another assay is Jurkat. Kind of assay: Antiproliferative activity against human Jurkat cells after 72 hrs by Alamar Blue assay. Format: functional, cell-based.
In the next assay the test system is MCF7. Kind of assay: Growth inhibition of human MCF7 cells at 10 uM relative to control. It counts as functional.
A further assay relates to T47D. Kind of assay: Growth inhibition of human T47D cells at 10 uM relative to control. Format: functional.
In a further assay the test system is HOP-92. Kind of assay: Growth inhibition of human HOP92 cells at 10 uM relative to control. Format: functional.
The next assay concerns A549. The assay is described as follows: Growth inhibition of human A549 cells at 10 uM relative to control. It counts as functional.
For another assay, the system named is HCT-116. Kind of assay: Growth inhibition of human HCT116 cells at 10 uM relative to control. Format: functional.
The test system of another assay is HT-29. The assay is described as follows: Growth inhibition of human HT29 cells at 10 uM relative to control. Format: functional.
The test system of another assay is MOLT-4. The assay is described as follows: Growth inhibition of human MOLT4 cells at 10 uM relative to control. It counts as functional.
A short description of assay [1]: Growth inhibition of human HL60(TB) cells at 10 uM relative to control. It counts as functional, HL-60(TB). The note with it: HL-60.
A further assay deals with CAKI-1. Kind of assay: Growth inhibition of human CAKI1 cells at 10 uM relative to control. Format: functional.
Another assay concerns 786-0. Kind of assay: Growth inhibition of human 786-0 cells at 10 uM relative to control. Format: functional.
The next assay concerns UACC-257. The assay is described as follows: Growth inhibition of human UACC257 cells at 10 uM relative to control. It counts as functional.
The next assay relates to SK-MEL-28. The assay is described as follows: Growth inhibition of human SK-MEL-28 cells at 10 uM relative to control. It counts as functional.
For a further assay, the system named is SF-295. The assay is described as follows: Growth inhibition of human SF295 cells at 10 uM relative to control. Format: functional.
The subject of the next assay is SNB-75. The assay is described as follows: Growth inhibition of human SNB75 cells at 10 uM relative to control. Format: functional.
The subject of the next assay is CCRF-CEM. Kind of assay: Growth inhibition of human CCRF-CEM cells at 10 uM relative to control. Format: functional.

Turning to `Cc1c2c(nc3ccc(Cl)cc13)CC(C(F)(F)F)CC2=O` (centres undefined), the IC50 with BT-549 was 12.1 µM; in the assay with BT-20 it was 6.7 µM; with SW480 it was 15.3 µM; in the assay with Jurkat, 5.1 µM. The inhibition at 10 µM in the assay with MCF7 is 95%; in the assay on T47D, 43%; in the assay with HOP-92, 58%; in the assay with A549 it was less than 20%; in the assay with HCT-116, less than 20%; in the assay with HT-29, 43%. For the same compound, the inhibition at 10 µM is 95% in the assay with MOLT-4; less than 20% in [1]; less than 20% with CAKI-1; less than 20% in the assay with 786-0; less than 20% in the assay on UACC-257; less than 20% in the assay on SK-MEL-28. Moreover, the inhibition at 10 µM in the assay on SF-295 and with SNB-75 was less than 20% throughout.

As for `O=C1CC(C(F)(F)F)Cc2nc3ccccc3c(-c3ccccc3)c21` (centres undefined), the inhibition at 10 µM with MCF7 was less than 20%; in the assay on T47D it was less than 20%; in the assay with HOP-92, 70%; in the assay on A549, less than 20%; in the assay with HCT-116, 70%; with HT-29, less than 20%. Further, the inhibition at 10 µM in the assay with MOLT-4 is less than 20%; in assay [1], 45%; in the assay on CCRF-CEM it was less than 20%; in the assay with CAKI-1, less than 20%; with 786-0, less than 20%; in the assay on UACC-257 it was 77%. The inhibition at 10 µM in the assay on SK-MEL-28, in the assay with SF-295 and in the assay on SNB-75 was less than 20% throughout.

On to `Cc1c2c(nc3cc4c(cc13)OCO4)CC(C(F)(F)F)CC2=O` (centres undefined), for which the inhibition at 10 µM in the assay on MCF7 is less than 20%; in the assay on T47D it was less than 20%; with HOP-92, less than 20%; in the assay on A549, 67%; with HCT-116, less than 20%; with HT-29, less than 20%. For the same compound, the inhibition at 10 µM (in the assay with MOLT-4; in [1]; in the assay with CCRF-CEM; in the assay on CAKI-1; in the assay on 786-0; with UACC-257) was less than 20% in each case. Besides, the inhibition at 10 µM in the assay on SK-MEL-28 is less than 20%; in the assay with SF-295 it was 32%; with SNB-75, 25%.

As to `O=C1CC(C(F)(F)F)Cc2nc3ccc(Cl)cc3c(-c3ccccc3)c21` (centres undefined), the IC50 with BT-549 turned out to be 16.1 µM; in the assay with BT-20 it was 22.1 µM; in the assay on SW480, 28.4 µM; in the assay with Jurkat, 12.3 µM. Further, the inhibition at 10 µM in the assay on MCF7 was less than 20%; with T47D it was less than 20%; with HOP-92, 37%; in the assay with A549 it was 80%; in the assay on HCT-116, 25%; with HT-29 it was less than 20%. The inhibition at 10 µM in the assay with CCRF-CEM was less than 20%; with CAKI-1, 66%; with 786-0, less than 20%; with UACC-257, 40%; in the assay with SK-MEL-28, less than 20%; with SF-295, 48%. Moreover, the inhibition at 10 µM in the assay with SNB-75 is less than 20%.

Consider `O=C1CC(C(F)(F)F)Cc2nc3ccc(Cl)cc3c(-c3ccccc3Cl)c21` (centres undefined), for which the IC50 amounted to 39.3 µM in the assay on BT-549, 42.1 µM in the assay on BT-20, 21.3 µM with SW480 and 87.6 µM in the assay with Jurkat. Also, the inhibition at 10 µM in the assay on MCF7 is less than 20%; in the assay on T47D, less than 20%; with HOP-92, 38%; in the assay with A549, 50%; with HCT-116, 38%; with HT-29, less than 20%. The inhibition at 10 µM was 46% in the assay with MOLT-4; less than 20% in [1]; 60% with CCRF-CEM; less than 20% in the assay with CAKI-1; less than 20% in the assay with 786-0; less than 20% in the assay on UACC-257. The inhibition at 10 µM in the assay with SK-MEL-28, in the assay on SF-295 and with SNB-75 was less than 20% each time.

The term IC50 denotes the concentration that inhibits the measured activity by half. Lower therefore signals greater potency. By inhibition is commonly meant how much of the control response was suppressed. Higher therefore signals a response far below the control.
